The source of these data is patent US6413960B1, “Substituted pyrazolyl benzenesulfonamides for the treatment of asthma” (G.D. Searle & Co., priority 1993, dated 2002).

The target of data set [1] is T1, Human COX II (Homo sapiens, UniProt P35354).
T1 construct: A 2.0 kb fragment containing the coding region of either human or murine COX-I or human or murine COX-II; made in house; host or cells: SF9 insect cells (baculovirus, transfer vector pVL1393)
T1 sequence (P35354 18-604): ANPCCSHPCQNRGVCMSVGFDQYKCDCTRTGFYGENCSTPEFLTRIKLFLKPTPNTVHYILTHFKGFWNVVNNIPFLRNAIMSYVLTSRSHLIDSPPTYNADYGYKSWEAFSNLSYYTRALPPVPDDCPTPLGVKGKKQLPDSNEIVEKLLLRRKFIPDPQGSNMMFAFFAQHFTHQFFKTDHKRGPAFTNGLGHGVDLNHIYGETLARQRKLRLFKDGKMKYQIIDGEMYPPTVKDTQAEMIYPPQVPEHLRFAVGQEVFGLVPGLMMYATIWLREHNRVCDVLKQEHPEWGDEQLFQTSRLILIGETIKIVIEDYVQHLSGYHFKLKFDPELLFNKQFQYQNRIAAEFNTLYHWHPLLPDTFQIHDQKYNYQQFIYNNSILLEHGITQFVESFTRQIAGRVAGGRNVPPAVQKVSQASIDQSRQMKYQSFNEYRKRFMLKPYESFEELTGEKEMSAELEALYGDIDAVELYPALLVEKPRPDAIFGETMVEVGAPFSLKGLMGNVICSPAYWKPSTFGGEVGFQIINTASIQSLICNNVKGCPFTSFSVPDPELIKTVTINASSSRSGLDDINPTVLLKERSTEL
The data set can be described thus: Assay for COX II activity in vitro (PGE2 ELISA, recombinant enzyme). It counts as biochemical. Particulars: read-out: Human COX II ID50. Background: In an ELISA, binding on a coated surface is turned into a signal by an enzyme label.
Description: The COX II inhibition activity of the compounds of this invention illustrated in the Examples was determined by the following methods.

The target of data set [2] is T2, Human COX I (Homo sapiens, UniProt P23219).
T2 construct: A 2.0 kb fragment containing the coding region of either human or murine COX-I or human or murine COX-II; made in house; host or cells: SF9 insect cells (baculovirus, transfer vector pVL1393)
T2 sequence (P23219 24-599): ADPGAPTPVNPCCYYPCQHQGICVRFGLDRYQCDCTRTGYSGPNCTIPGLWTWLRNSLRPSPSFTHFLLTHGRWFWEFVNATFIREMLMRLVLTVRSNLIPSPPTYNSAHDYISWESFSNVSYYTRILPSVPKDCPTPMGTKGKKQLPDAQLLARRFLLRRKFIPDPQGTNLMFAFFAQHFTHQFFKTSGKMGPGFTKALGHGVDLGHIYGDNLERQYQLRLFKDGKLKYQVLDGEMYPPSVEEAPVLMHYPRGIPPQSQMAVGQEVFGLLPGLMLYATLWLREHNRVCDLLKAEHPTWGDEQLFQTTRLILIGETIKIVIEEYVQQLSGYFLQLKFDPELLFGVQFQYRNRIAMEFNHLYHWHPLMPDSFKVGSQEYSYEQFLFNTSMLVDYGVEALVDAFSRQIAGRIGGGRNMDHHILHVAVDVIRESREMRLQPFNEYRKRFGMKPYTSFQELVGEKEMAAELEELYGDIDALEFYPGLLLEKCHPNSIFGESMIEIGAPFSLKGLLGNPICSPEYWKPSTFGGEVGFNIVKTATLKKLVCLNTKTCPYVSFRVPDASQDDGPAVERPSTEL
Description: Assay for COX I activity in vitro (PGE2 ELISA, recombinant enzyme). It counts as biochemical.

The test system of data set [3] is Male Sprague-Dawley rats (carrageenan foot edema). As to conditions: oral, foot volume 3 h after carrageenan; for RAT PAW EDEMA % Inhibition (* Assay performed at 30 mg/kg body weight): 30 mg/kg body weight (values marked *). For orientation: In the carrageenan paw model, swelling and tenderness develop within hours.
Description: Rat Carrageenan Foot Pad Edema Test
Male Sprague-Dawley rats were selected in each group so that the average body weight was as close as possible. Rats were fasted with free access to water for over sixteen hours prior to the test. […] One hour later a subplantar injection of 0.1 mL of 1% solution of carrageenan/sterile 0.9% saline was administered and the volume of the injected foot was measured with a displacement plethysmometer connected to a pressure transducer with a digital indicator. Three hours after the injection of the carrageenan, the volume of the foot was again measured.

Like-named read-outs stand apart in the source and are kept apart here.

On to `COc1c(Cl)cc(-c2cc(C(F)(F)F)nn2-c2ccc(S(N)(=O)=O)cc2)cc1Cl` [Example 3, 4-[5-(3,5-Dichloro-4-methoxyphenyl)-3-(trifluoromethyl)-1H-pyrazol-1-yl]benzenesulfonamide], for which the IC50 in data set [1] was less than 0.1 µM.

With `C=CCc1cc(-c2cc(C(F)(F)F)nn2-c2ccc(S(N)(=O)=O)cc2)ccc1OC` [Example 6, 4-[5-(3-(3-Propenyl)-4-methoxyphenyl)-3-(trifluoromethyl)-1H-pyrazol-1-yl]benzenesulfonamide], the IC50 in data set [2] is 78.7 µM. As to `CCCc1cc(-c2cc(C(F)(F)F)nn2-c2ccc(S(N)(=O)=O)cc2)ccc1OC` [Example 7, 4-[5-(3-Propyl-4-methoxyphenyl)-3-(trifluoromethyl)-1H-pyrazol-1-yl]benzenesulfonamide], in data set [1], the IC50 came to 14 µM. The same measure, in the same setting: the result for `COc1ccc(-c2cc(C(F)(F)F)nn2-c2ccc(S(N)(=O)=O)cc2)cc1CC1CC1` [Example 8, 4-[5-(3-Cyclopropylmethyl-4-methoxyphenyl)-3-(trifluoromethyl)-1H-pyrazol-1-yl]benzenesulfonamide] reads 37.7 µM. Take `NS(=O)(=O)c1ccc(-n2nc(C(F)F)cc2-c2ccc3c(c2)OCO3)cc1` [Example 82, 4-[5-(1,3-Benzodioxol-5-yl)-3-(difluoromethyl)-1H-pyrazol-1-yl]benzenesulfonamide]: the “RAT PAW EDEMA % Inhibition (* Assay performed at 30 mg/kg body weight)” value in data set [3] is listed as 22* %. Take `COC(=O)c1cc(-c2cc(F)c(OC)c(F)c2)n(-c2ccc(S(N)(=O)=O)cc2)n1` [Example 84, Methyl 1-(4-aminosulfonylphenyl)-5-(3,5-difluoro-4-methoxyphenyl)-1-H-pyrazole-3-carboxylate]: the IC50 was 65.5 µM in data set [2] (read-out: Human COX I ID50) and less than 0.1 µM in data set [1]. In turn, `COC(=O)c1cc(-c2ccc(Cl)cc2)n(-c2ccc(S(N)(=O)=O)cc2)n1` [Example 85, Methyl [1-(4-aminosulfonylphenyl)-5-(4-chlorophenyl)-1H-pyrazole-3-yl]carboxylate] displayed a melting point of 227 °C. Further, in data set [1], the IC50 amounted to 73.6 µM. As to `CCOC(=O)c1cc(-c2ccc(Cl)cc2)n(-c2ccc(S(N)(=O)=O)cc2)n1` [Example 86, Ethyl [1-(4-aminosulfonylphenyl)-5-(4-chlorophenyl)-1H-pyrazole-3-yl]carboxylate], in data set [1], the IC50 stood at 0.5 µM.

In turn, `NC(=O)c1cc(-c2ccc(Cl)cc2)n(-c2ccc(S(N)(=O)=O)cc2)n1` [Example 96] had a melting point of 108 to 110 °C. In addition, in data set [1], the IC50 is 6.5 µM. `NS(=O)(=O)c1ccc(-n2nc(C(=O)Nc3cccc(Cl)c3)cc2-c2ccc(F)cc2)cc1` [Example 98, N-(3-Chlorophenyl)-[1-(4-aminosulfonylphenyl)-5-(4-fluorophenyl)-1H-pyrazol-3-yl]carboxamide]: the “RAT PAW EDEMA % Inhibition (* Assay performed at 30 mg/kg body weight)” value in data set [3] is recorded as 2* %. With `N#Cc1cc(-c2ccc(F)cc2)n(-c2ccc(S(N)(=O)=O)cc2)n1` [Example 117], in data set [3], the “RAT PAW EDEMA % Inhibition @ 10 mg/kg body weight” value is reported as 32%.

Molecule `COc1ccc(-c2cc(C(Cl)Cl)nn2-c2ccc(S(N)(=O)=O)cc2)cc1F` [Example 130, 4-[3-(Dichloromethyl)-5-(3-fluoro-4-methoxyphenyl)-1H-pyrazol-1-yl]benzenesulfonamide] returned a melting point of 190 to 193 °C. Moreover, the IC50 in data set [2] (read-out: Human COX I ID50) worked out at 12.5 µM. Besides, in data set [1], the IC50 was 3.6 µM. In turn, `NS(=O)(=O)c1ccc(-n2nc(C(F)F)cc2-c2cnccn2)cc1` [Example 137, 4-[5-(2-Pyrazinyl)-3-(difluoromethyl)-1H-pyrazol-1-yl]benzenesulfonamide] registered a melting point of 191 to 194 °C.

For `Cc1c(-c2cc(C(F)(F)F)nn2-c2ccc(S(N)(=O)=O)cc2)ccc2c1OCO2` [Example 138, 4-[5-(4-methyl-1,3-benzodioxol-5-yl)-3-(trifluoromethyl)-1H-pyrazol-1-yl]benzenesulfonamide], the figures for the IC50 in data set [2] (read-out: Human COX I ID50) and in data set [1] were less than 0.1 µM and 0.6 µM, respectively. For `NS(=O)(=O)c1ccc(-n2nc(CCCO)cc2-c2ccccc2)cc1` [Example 172, 4-[5-Phenyl-3-(3-hydroxypropyl)-1H-pyrazol-1-yl]benzenesulfonamide], the IC50 in data set [1] was 4.2 µM. With `NS(=O)(=O)c1ccc(-n2nc(CCCO)cc2-c2ccc(F)cc2)cc1` [Example 173, 4-[5-(4-Fluorophenyl)-3-(3-hydroxypropyl)-1H-pyrazol-1-yl]benzenesulfonamide], in data set [1], the IC50 was determined as 4.7 µM. The molecule `NS(=O)(=O)c1ccc(-n2nc(CCC(=O)O)cc2-c2ccc(F)cc2)cc1` [Example 174] returned a melting point of 180 to 182 °C. Also, the IC50 in data set [1] amounted to 3.5 µM. On to `CCOC(=O)C(C#N)=Cc1cc(-c2ccccc2)n(-c2ccc(S(N)(=O)=O)cc2)n1` [Example 176, Ethyl 3-[1-[4-(aminosulfonyl)phenyl]-5-phenyl-1H-pyrazol-3-yl]-2-cyano-2-propenoate], for which, in data set [1], the IC50 is 0.3 µM. `NS(=O)(=O)c1ccc(-n2nc(C=NOCc3ccccc3)cc2-c2ccc(Cl)cc2)cc1` [Example 177, 4-[5-(4-Chlorophenyl)-3-[[(phenylmethoxy)imino]methyl]-1H-pyrazol-1-yl]benzenesulfonamide] returned a melting point of 158 to 159 °C.

Molecule `NS(=O)(=O)c1ccc(-n2nc(C(F)(F)F)c3c2-c2ccccc2CC3)cc1` [Example 187, 4-[4,5-Dihydro-3-(trifluoromethyl)-1H-benz[g]indazol-1-yl]benzenesulfonamide] yielded a melting point of 257 to 258 °C.

Regarding `Cc1ccc2c(c1)CCc1c(C(F)(F)F)nn(-c3ccc(S(N)(=O)=O)cc3)c1-2` [Example 188, 4-[4,5-Dihydro-7-methyl-3-(trifluoromethyl)-1H-benz[g]indazol-1-yl]benzenesulfonamide], the melting point was 215 to 218 °C. In addition, the IC50 in data set [2] (read-out: Human COX I ID50) was 19.8 µM. In the case of `NS(=O)(=O)c1ccc(-n2nc(C(F)(F)F)c3c2-c2ccsc2CC3)cc1` [Example 196, 4-[4,5-Dihydro-3-(trifluoromethyl)-1-H-thieno[3,2-g]indazol-1-yl]benzenesulfonamide], the melting point fell in the range of 288 to 290 °C. The IC50 in data set [2] (read-out: Human COX I ID50) stood at 4.1 µM. The IC50 in data set [1] was determined as 0.6 µM. `NS(=O)(=O)c1ccc(-n2ncc(Cl)c2-c2ccc(Cl)cc2)cc1` [Example 197, 4-[5-(4-Chlorophenyl)-4-chloro-1H-pyrazol-1-yl]benzenesulfonamide]: the melting point was 168 to 171 °C (dec.). In addition, the “RAT PAW EDEMA % Inhibition (* Assay performed at 30 mg/kg body weight)” value in data set [3] is listed as 45* %. `NS(=O)(=O)c1ccc(-n2nc(C(F)(F)F)c(Cl)c2-c2ccc(Cl)cc2)cc1` [Example 199, 4-[5-(4-Chlorophenyl)-3-(trifluoromethyl)-4-chloro-1H-pyrazol-1-yl]benzenesulfonamide]: in data set [3], the “RAT PAW EDEMA % Inhibition @ 10 mg/kg body weight” value is recorded as 35%. For `Cc1c(C(F)(F)F)nn(-c2ccc(S(N)(=O)=O)cc2)c1-c1ccccc1` [Example 201, 4-[4-Methyl-5-phenyl-3-(trifluoromethyl)-1H-pyrazol-1-yl]benzenesulfonamide], the melting point was in the range of 145 to 146 °C. Moreover, in data set [2] (read-out: Human COX I ID50), the IC50 is 2.2 µM. For the same molecule, in data set [1], the IC50 is less than 0.1 µM. In turn, `CCc1c(C(F)(F)F)nn(-c2ccc(S(N)(=O)=O)cc2)c1-c1ccc(OC)c(C)c1` [Example 202, 4-[4-Ethyl-5-(3-methyl-4-methoxyphenyl)-3-(trifluoromethyl)-1H-pyrazol-1-yl]benzenesulfonamide] gave a melting point of 135 to 136 °C. Also, the IC50 in data set [2] (read-out: Human COX I ID50) was 91 µM. Moreover, the IC50 in data set [1] was less than 0.1 µM. In turn, `NS(=O)(=O)c1ccc(-n2nc(C(F)(F)F)c(C3CC3)c2-c2ccccc2)cc1` [Example 203, 4-[4-Cyclopropyl-5-phenyl-3-(trifluoromethyl)-1H-pyrazol-1-yl]benzenesulfonamide] showed a melting point of 173 to 174 °C. Moreover, the IC50 in data set [1] came to 27 µM. For the molecule `NS(=O)(=O)c1ccc(-n2nc(C(F)(F)F)c(CO)c2-c2ccccc2)cc1` [Example 204, 4-[4-hydroxymethyl-5-phenyl-3-(trifluoromethyl)-1H-pyrazol-1-yl]benzenesulfonamide], the IC50 in data set [1] worked out at 6.7 µM. Consider `CC(C)Cc1nn(-c2ccc(S(N)(=O)=O)cc2)c(-c2ccccc2)c1Cl` [Example 205, 4-(4-Chloro-3-isobutyl-5-phenyl-1H-pyrazol-1-yl)benzenesulfonamide], for which the IC50 in data set [2] (recombinant human COX I, arachidonic acid 10 μM, PGE2 ELISA, read-out: Human COX I ID50) is 2.1 µM; in data set [1] (recombinant human COX II, arachidonic acid 10 μM, PGE2 ELISA), less than 0.1 µM. For the molecule `CN(C)C=NS(=O)(=O)c1ccc(-n2nc(C#N)c(Cl)c2-c2ccc(F)cc2)cc1` [Example 259], the IC50 in data set [1] stood at 1.1 µM.

In the case of `CN(C)C=NS(=O)(=O)c1ccc(-n2nc(C#N)c(Br)c2-c2ccccc2)cc1` [Example 260, 4-[4-Bromo-3-cyano-5-phenyl-1H-pyrazol-1-yl]-N-[(dimethylamino)methylene]benzenesulfonamide], the IC50 in data set [1] is 1.1 µM.

The melting point is the temperature, or range, at which the solid turns liquid.
